# Reference: paper doi:10.1101/2022.06.02.494630v1 (biorxiv, 2022)
# Experiments:
# [1] = molecular target: PfPHB1 (Plasmodium falciparum, UniProt Q8IBC3); test: biochemical
# [2] = molecular target: PfPHB2 (Plasmodium falciparum, UniProt Q8IJP8); test: biochemical
# Chain of PfPHB2 (Q8IJP8 1-304): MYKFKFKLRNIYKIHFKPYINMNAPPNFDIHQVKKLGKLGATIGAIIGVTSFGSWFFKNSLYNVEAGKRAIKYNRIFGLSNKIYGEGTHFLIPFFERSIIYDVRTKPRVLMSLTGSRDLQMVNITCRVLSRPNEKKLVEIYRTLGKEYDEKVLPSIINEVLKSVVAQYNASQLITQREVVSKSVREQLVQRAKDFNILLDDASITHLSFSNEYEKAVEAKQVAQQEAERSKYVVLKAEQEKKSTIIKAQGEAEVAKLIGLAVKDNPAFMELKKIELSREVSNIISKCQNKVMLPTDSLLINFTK
# Chain of PfPHB1 (Q8IBC3 1-272): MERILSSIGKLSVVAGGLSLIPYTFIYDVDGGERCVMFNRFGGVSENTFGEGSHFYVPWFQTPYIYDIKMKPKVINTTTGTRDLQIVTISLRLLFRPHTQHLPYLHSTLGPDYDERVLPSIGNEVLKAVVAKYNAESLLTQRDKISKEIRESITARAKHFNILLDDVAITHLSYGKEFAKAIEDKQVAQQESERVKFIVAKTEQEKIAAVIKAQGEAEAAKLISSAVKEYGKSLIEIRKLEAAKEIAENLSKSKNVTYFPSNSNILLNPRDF
smiles,measurement,setting,value
COc1ccc([C@@]23Oc4cc(OC)cc(OC)c4[C@]2(O)[C@H](O)[C@H](C(=O)N(C)C)[C@H]3c2ccccc2)cc1 [Roc-A],Kd,[1],1370 ± 600 nM
same,Kd,[2],683 ± 21 nM
